Measurements reported in patent US20190111059A1, “COMPOSITIONS AND METHODS FOR TREATING AUTISM SPECTRUM DISORDER” (Marinus Pharmaceuticals, Inc., priority 2017, published 2019).
Where a name gives a salt, the structure may show the parent alone.

Assays:
[1] = test system: children with non-syndromic autism spectrum disorder (ASD) and language impairment; assay: Randomized placebo-controlled trial: Autism Symptoms Questionnaire (ASQ); format: in vivo, human; conditions: lower = less autism symptoms; for ASQ Stereotypic behavior, estimated effect / ASQ Total score, estimated effect: calcium salt
Experimental: The Autism Symptoms Questionnaire (“ASQ) is a 34-item checklist (The Center for Autism and Related Disorders) that assesses social interaction (12 items, range 0-4), stereotyped behavior (7 items, range 0-4), communication symptoms (15 items, range 0-5) and total symptoms (34 items, […]). […] This two-arm double-blind randomized placebo-controlled parallel study with a 1:1 allocation was performed at Arkansas Children's Research Institute (Little Rock, Ark., USA) from 4 Jun. 2012 to 22 Nov. 2013. Parent and teacher questionnaires were requested at baseline and 6 and 12 weeks after starting treatment. Parents were asked to deliver baseline questionnaires to teachers or therapists. After the first visit, questionnaires were mailed to the parents and teachers at least 1 week prior to the target date of completion. Parents were asked to bring the completed teacher and parent 12-week questionnaires to the final assessment. Other questionnaires were returned in a preaddressed postage-paid envelope. The target dose of the intervention (INN: DL folinic acid calcium salt; USAN: leucovorin calcium) was 2 mg kg^−1 per day (maximum 50 mg per day) in two equally divided doses with half of the target dose given during the first 2 weeks. Dye-free, milk-product-free, vegetarian capsules were provided in three strengths (5, 10 and 25 mg) by Lee Silsby Compounding Pharmacy (Cleveland Heights, Ohio, USA). Certificate of analysis was provided for each capsule strength by an independent analytical service (Eagle Analytical Services, Houston, Tex., USA) for each batch of capsules produced. In all cases, potency was at least 99%. Secondary outcomes. Secondary outcome measures included the Ohio Autism Clinical Impression Scale (OACIS), Vineland Adaptive Behavior Scale 2nd Edition (VABS) Survey Interview Form and several questionnaires. Parents and teachers were asked to complete the Aberrant Behavior Checklist (ABC), Social Responsiveness Scale (SRS) and Behavioral Assessment System for Children 2nd Edition (BASC). Only parents were asked to complete the Autism Impact Measure (AIM) and Autism Symptoms Questionnaire (ASQ). Secondary outcome measures were analyzed using the mixed-model regression. Because of the large number of secondary outcomes, correction for multiple comparisons was conducted using the false discovery rate.

[2] = cited from earlier work
[3] = test system: children with ASD and low CSF folate concentrations; conditions: high-dose; case reports and series; cited from earlier work
[4] = vs placebo, mixed-model regression
[5] = vs placebo, mixed-model regression, listed as folinic acid

## Nc1nc2c(c(=O)[nH]1)N(C=O)C(CNc1ccc(C(=O)N[C@@H](CCC(=O)O)C(=O)O)cc1)CN2 (mixture of isomers) [Folinic acid, DL folinic acid calcium salt]
[1]; 2 mg kg^−1 per day, 12 weeks, baseline 3.1
  ASQ Stereotypic behavior, 12-week assessment mean: 3.2 Raw Score
[1]; 2 mg kg^−1 per day, 12 weeks, baseline 3.5
  ASQ Social, 12-week assessment mean: 3.3 Raw Score
[1]; 2 mg kg^−1 per day, 12 weeks, baseline 4.7
  ASQ Communication, 12-week assessment mean: 4.7 Raw Score
[1]; 2 mg kg^−1 per day, 12 weeks, baseline 11.3
  ASQ Total score, 12-week assessment mean: 11.2 Raw Score
[1]; [4]
  ASQ Communication, estimated effect: 0.0 Raw Score
  ASQ Social, estimated effect: −0.1 Raw Score
  ASQ Stereotypic behavior, estimated effect: −0.2 Raw Score
  ASQ Total score, estimated effect: −0.3 Raw Score
[1]; [5]
  ASQ Stereotypic behavior, estimated effect: significantly improved
  ASQ Total score, estimated effect: significantly improved
[2]
  Absorption following oral administration: rapidly absorbed
[3]
  Symptoms in children with ASD and low CSF folate concentrations: markedly improves symptoms
